Assay results reported in patent US8088822B2, “Use of fenretinide or bioactive derivatives thereof and pharmaceutical compositions comprising the same” (priority 2008, dated 2012).
Where two headings read alike, the source gives them in different places.

How the values were obtained:
[1] = test system: normal hematopoietic stem cells (HSC); test: Apoptosis/toxicity in normal hematopoietic stem cells; assay type: cell-based, human; settings: representative specimen
Source text: (§1) Fresh bone marrow (BM) cells were obtained from 38 patients with CML and 5 non-leukemic donors, 25 AML, 17 ALL, and 8 normal specimens with informed consent according to the Declaration of Helsinki. Approval was obtained from Institutional Review Board at the School of Medicine in Shanghai Jiao Tong University. BM mononuclear cells were isolated by Ficoll density gradient centrifugation (Shanghai Second Reagent Factory, Shanghai, China). CD34^+ Cell were selected using EasySep® Human CD34 Positive Selection kit (Stem Cell Technologies, Vancouver, BC, Canada) according to the manufacturer's instructions. The purity of CD34 cells ranged between 92 and 98% in all samples detennined by flow cytometry. The CD34^+ cells were cultured in a serum-free medium (StemPro 34; Gibco BRL, Gaithersburg, Md.) supplemented with growth factors (PeproTech, London, United Kingdom) (20). The growth factors consisted of GM-CSF (200 pg/mL), G-CSF (1 ng/mL); SCF (200 pg/mL); LIF (50 pg/mL), MIP-1α (200 pg/mL) and IL-6 (1 ng/mL).
Primitive AML and CML subpopulations (CD34^+ cells) were identified using CD34-PE in combination with CD38-APC, and followed by double-labeling with 7AAD and Annexin V antibodies for apoptosis assessment. […] Subsequently, the samples were incubated at room temperature for 15 minutes and analyzed by flow cytometry. […]

[2] = test system: AML CD34+ cells; test: Apoptosis/viability of AML CD34+ cells (annexin-V FITC/7AAD); assay type: cell-based, human; settings: for viability at 5 µM: 5 μM fenretinide
Source text: as §1
(§2) Primitive AML and CML subpopulations (CD34^+ cells) were identified using CD34-PE in combination with CD38-APC, and followed by double-labeling with 7AAD and Annexin V antibodies for apoptosis assessment. The CD34^+ cells were first stained with antibodies against the surface markers CD34-PE and CD38-APC (Beckman Coulter, Fullerton, Calif.) and incubated at room temperature for 15 minutes. Cells were then washed with cold PBS and resuspended in 200 μL annexin V 1×binding buffer (10 mM HEPES/NaOH, pH 7.4, 140 mM NaCl, 2.5 mM CaCl2), 5 μL AnnexinV-FITC (BD Phanningen, San Diego, Calif.) and 7-aminoactinomycin (7-AAD, 0.25 mg/mL) (Molecular Probes, Eugene, Oreg.). Subsequently, the samples were incubated at room temperature for 15 minutes and analyzed by flow cytometry.
Primary acute leukemia cells from specimens including AML and ALL are mostly quiescent, especially for the subpopulations of leukemic CD34^+ cells (Guan and Hogge, 2000). To verify if this quiescent leukemia cells are sensitive to fenretinide, we compared the effects of fenretinide on primary leukemia versus normal specimens during short-term suspension culture. CD34^+ cells were isolated from primary acute leukemia specimens, and subjected to DNA content analysis through propidium iodide staining and followed by flow cytometry. The majority of isolated CD34^+ cells from AML and ALL were in G0/G1 phase of the cell cycle, indicating the quiescent feature of leukemia CD34^+ cells (FIG. 4A). Then, apoptosis profiles of AML CD34^+ cells and normal CD34^+ cells were examined through annexin-V FITC and 7AAD double staining (FIG. 4B).

[3] = test system: CD34+CD38− acute leukemia stem and CD34+CD38+ progenitor population; test: Apoptosis of acute leukemia (AML and ALL) stem and progenitor subpopulations; assay type: cell-based, human; settings: AML and ALL specimens
Method: as §2
Furthermore, we examined whether fenretinide can preferentially target highly quiescent LSCs with CD34^+CD38^− immunophenotyte and leukemia progenitor cells with CD34^+CD38^+ for AML and most ALL specimens. Due to the difficulty of obtaining adequate normal CD34^+CD38^− cells, our apoptosis data of normal specimens came from CD34^− cell populations. Also, we used Ara-C and VCR (vincristine) as controls to test the apoptosis of leukemia stem cells, which were thought to be resistant to these chemotherapeutics.

[4] = test system: U937; test: Growth inhibition and combination index in AML cell line U937; assay type: cell-based; settings: U937, single agent
Method: The combination Index (CI) was used to test the combination effect of fenretinide and Ara-C on growth inhibition in AML cell line U937. The CI was calculated according to the classic isobologram equation: CI=d1/D1+d2/D2. In this equation, D1 and D2 represent the doses of drug 1 and drug 2 alone, required to produce x % effect, and d1 and d2 are the doses of drugs 1 and 2 in combination required to produce the same effect. And CI<1, CI>1 and CI=1 represent the synergism, […], respectively.

[5] = test system: MKN45; test: Apoptosis in gastric tumor cell line MKN45 (Rh123/PI, FACS); assay type: cell-based; settings: MKN45, 48 hours; 4 μM fenretinide, 5 μM Tet, alone or co-treatment
Method: Loss of MTP was evaluated through rhodamine 123 (Rh123) and propidium iodide (PI) staining. 2×10^5 cells were washed by PBS and incubated with 1 μg/ml Rh123 at 37° C. for 30 min. After washed by PBS, 10 μl PI was added to cells for 15 min at room temperature in the dark. Fluorescence emission at 530 nm (representing R123 retention as a function of MTP) was measured with flow cytometry.
Fenretinide induces intracellular ROS and ER stress to activate series of molecular events including apoptotic pathway and such anti-apoptotic pathways as NF-κB cascade. NF-κB can mediate the progression of inflammation-related cancer. […] Unlike fenretinide, Tet is the well-known anti-cancer and anti-inflammation drugs via inhibiting the activity of NF-κB. For example, Tet, as the main effective component of Stephenia tetrandra S Moore, has bioactivities in reversing MDR (multidrug resistance), blocking calcium ion channel and so on. […] FIGS. 19A and 19B show synergistic induction of apoptosis by fenretinide and Tet, as evaluated by Rh123/PI double stain using FACS. […] Through annexin-V/PI double staining, synergistic apoptosis profiles of fenretinide/tetrandrine co-treated MKN45 and SGC7901 cells were also observed (see FIGS. 19C and 19D).

Structure (SMILES): CC1=C(/C=C/C(C)=C/C=C/C(C)=C/C(=O)Nc2ccc(O)cc2)C(C)(C)CCC1 [fenretinide, N-(4-hydroxyphenyl)retinamide]
- change in the cell proportion of normal HSC [1]: 5.36%
- apoptosis in normal HSC ([1]; fenretinide alone or co-treatment with imatinib): 19.08%
- viability at 5 µM ([2]; Homo sapiens, 18 h, read-out: viability of most resistant AML specimen (AML #8)): 89.7%
- viability at 5 µM ([2]; Homo sapiens, 18 h, read-out: viability of most sensitive AML specimen (AML #20)): 0.5%
- viability at 5 µM ([2]; Homo sapiens, 18 h in culture, read-out: mean viability of AML CD34+ cells): 45.4%
- viability at 7.5 µM ([2]; Homo sapiens, 7.5 μM fenretinide, read-out: mean viability of AML CD34+ specimens): 12.2%
- apoptosis induction in AML CD34+ cells ([2]; short-term suspension culture): time- and dose-dependant manner
- apoptosis in CD34+CD38− acute leukemia stem population versus CD34+CD38+ progenitor population [3]: more apoptosis
- dose alone required for growth inhibition rate of 65.47% [4]: 2.72 µM
- apoptosis [5]: 6.2%
